Key:
PGE-2 [1] = experiment: IL-1 induced PGE-2 in human skin fibroblasts (ELISA of culture medium); assay type: cell-based; conditions: Skin fibroblast, IL-1 500 picograms/ml, 24 hours, read-out: percent inhibition of IL-1 induced PGE-2; for inhibition at 1 µM: compound 1 μM; for inhibition at 10 µM: compound 10 μM; for inhibition at 50 µM: compound 50 μM
Method: (§1) For this experiment, human skin fibroblasts were seeded into 12 well culture dishes at a density of 80,000 cells/well in tissue culture medium and left overnight to attach to the dish. The next day, medium was removed and replaced with fresh medium containing either 1% ethanol as a diluent control, IL-1 at a concentration of 500 picograms/ml, or IL-1 plus one of the compounds under investigation at a concentration of 1, 10, 50 or 100 μM. Cells were incubated for an additional 24 hours and at this time, the medium was removed and assayed by ELISA for the presence of PGE-2 in the culture medium.

PGE-2 [2] = experiment: TPA-induced PGE-2 in human skin keratinocytes (ELISA of culture medium); assay type: cell-based; conditions: TPA 32 nM
Method: as §1
Similar in vitro studies as those described in Example 1 were run using human skin keratinocytes except that the aromatic aldehyde was not added t. The experimental set up was the same as described for Example 1, but replacing IL-1 with tetradecanoyl phorbol acetate (TPA) at a concentration of 32 nM as the agonist. Samples of 3,5-Di-tert-butyl, 4- hydroxybenzaldehyde (DTHB) in concentrations of either 10, 50, or 100 μM were tested. […] However, treatment with DTHB blocked PGE-2 production by at least 50.

For CCOc1ccc(C=O)cc1 [4-EB, 4-ethoxybenzaldehyde, reference compound], the inhibition at 1 µM (PGE-2 [1]) was 10%, the inhibition at 10 µM (PGE-2 [1]) was 6% and the inhibition at 50 µM (PGE-2 [1]) was 100%.
CC(C)(C)c1cc(C=O)cc(C(C)(C)C)c1O [DTHB, 3,5 di-tert-butyl-4-hydroxybenzaldehyde] was tested, and the inhibition at 1 µM (PGE-2 [1]) was 3.3%, the inhibition at 10 µM (PGE-2 [1]) was 44.4% and the inhibition at 50 µM (PGE-2 [1]) was 100%. For the same compound, the inhibition at 10 µM (PGE-2 [2]; Keratinocyte, compound 10 μM, read-out: percent inhibition of TPA-induced PGE-2) was 87.9% and the “blocked PGE-2 production” value (PGE-2 [2]; DTHB 10, 50, or 100 μM) was “at least 50”.
